Calls of active or inactive are those of the source. The calls are words filed in the database; no cut-off is given here. Non-standard residues stand in square brackets, D forms with d. Residues, ends and D or L forms follow the SMILES beside them. *: point of attachment. Boc = CC(C)(C)OC(=O)*; OBn = c1ccc(CO*)cc1; For = O=C*
How the values were obtained:
[1] = molecular target: Mas-related G-protein coupled receptor member X4 (Homo sapiens) (UniProt Q96LA9); assay: Inverse agonist activity at recombinant human MrgprX4 expressed in HEK293 cells assessed as reduction in inositol phosphate accumulation incubated for 1 hr at 37 degC followed by incubation for 30 mins at room temperature by HTRF assay relative to baseline; type: functional, cell-based
Chain of Mas-related G-protein coupled receptor member X4 (Homo sapiens) (Q96LA9 whole entry): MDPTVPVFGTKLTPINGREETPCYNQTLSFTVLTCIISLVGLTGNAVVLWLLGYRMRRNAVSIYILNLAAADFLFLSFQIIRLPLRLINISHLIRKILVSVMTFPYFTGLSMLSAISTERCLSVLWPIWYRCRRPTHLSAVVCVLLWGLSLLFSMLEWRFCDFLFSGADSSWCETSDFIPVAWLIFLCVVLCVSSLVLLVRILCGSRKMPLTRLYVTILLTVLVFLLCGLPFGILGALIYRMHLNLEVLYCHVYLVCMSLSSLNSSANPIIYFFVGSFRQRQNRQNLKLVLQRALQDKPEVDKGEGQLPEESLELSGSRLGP

[2] = molecular target: Mas-related G-protein coupled receptor member X4 (Homo sapiens) (UniProt Q96LA9); assay: Antagonist activity at recombinant human MrgprX4 expressed in HEK293 cells assessed as blockade of bilirubin-induced inositol phosphate accumulation incubated for 1 hr at 37 degC followed by incubation for 30 mins at room temperature before bilirubin addition by HTRF assay relative to control; type: functional, cell-based
[3] = tested on: Mus musculus; assay: Suppression of ANIT-induced cholestatic liver injury in mouse assessed as effect on ALP level at 1 mg/kg, ip; type: functional, organism-based
[4] = tested on: Mus musculus; assay: Suppression of ANIT-induced cholestatic liver injury in mouse assessed as effect on total bilirubin at 1 mg/kg, ip; type: functional, organism-based
[5] = tested on: Mus musculus; assay: Suppression of bilirubin-induced pruritus in mouse assessed as reduction in scratching bouts in 30 mins at 0.25 mg/kg co-injected with bilirubin; type: functional, organism-based
[6] = tested on: Mus musculus; assay: Suppression of ANIT-induced cholestatic liver injury in mouse assessed as effect on ALT level at 1 mg/kg, ip; type: functional, organism-based
[7] = tested on: Mus musculus; assay: Suppression of ANIT-induced cholestatic pruritus in mouse assessed as reduction in scratching bouts in 30 mins at 1 mg/kg, ip 30 mins before behavioral analysis; type: functional, organism-based
[8] = tested on: Mus musculus; assay: Suppression of chloroquine-induced pruritus in mouse assessed as reduction in scratching bouts in 30 mins at 1 mg/kg co-injected with chloroquine; type: functional, organism-based
[9] = tested on: Mus musculus; assay: Suppression of ANIT-induced cholestatic liver injury in mouse assessed as effect on AST level at 1 mg/kg, ip; type: functional, organism-based

fold change (FC) [1]	inhibition [2] [%]	Compound	further results
2 to 3	85	O=C(NCc1cc2ccccc2[nH]1)c1cc(-c2ccccn2)nc2ccc(Br)cc12	–
3	85	Cc1nc(-c2ccnn2Cc2ccc(Cl)cc2)[nH]c1-c1ccccc1	–

The remaining lines, values behind:

Compound	fold change (FC) [1]	inhibition [2] [%]	further results
Cc1c(C(=O)NCc2ccccc2C(F)(F)F)ncn1Cc1ccc(Cl)cc1	3	85	–
CC(C)(C)OC(=O)N[C@@H](CCC(N)=O)C(=O)N[C@H](Cc1cn(C=O)c2ccccc12)C(=O)N[C@@H](Cc1ccccc1)C(=O)OCc1ccccc1 (Boc-Gln-[dW](For)-Phe-OBn)	–	–	Activity [3]: inactive; Activity [4]: inactive; Activity [5]: Active; Activity [6]: inactive; Activity [7]: Active; Activity [8]: inactive; Activity [9]: inactive
Nc1nc2ccccc2n1CCOc1ccccc1Cl	2 to 3	70 to 85	–

Reference: ChEMBL document CHEMBL4419180, “Compositions and methods for treating g protein coupled receptor mediated conditions” (2018)
